Source: patent US8669271B2 (Boehringer Ingelheim International GmbH, priority 2010, dated 2014)

Molecular target: T1, human GPR119 (Homo sapiens, UniProt Q8TDV5)
T1 construct: expression vector for human GPR119 cDNA (Acc. No. NP_848566); expressed in transfected cells
T1 sequence (Q8TDV5 1-335): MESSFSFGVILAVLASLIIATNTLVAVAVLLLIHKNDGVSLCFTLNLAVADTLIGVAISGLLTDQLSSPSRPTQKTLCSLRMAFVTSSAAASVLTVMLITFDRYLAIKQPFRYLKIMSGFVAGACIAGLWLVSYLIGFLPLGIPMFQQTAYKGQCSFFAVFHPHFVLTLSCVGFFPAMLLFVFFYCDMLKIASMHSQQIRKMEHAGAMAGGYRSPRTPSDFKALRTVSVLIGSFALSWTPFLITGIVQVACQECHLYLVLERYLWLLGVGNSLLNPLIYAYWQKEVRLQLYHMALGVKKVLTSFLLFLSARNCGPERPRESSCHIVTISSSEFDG
Experiment: AlphaScreen cAMP assay in Min-6/hGPR119 cells (activation of GPR119, intracellular cAMP)
Type: cell-based
Details: MIN6 cells stably transfected with human GPR119; cAMP by AlphaScreen after 45 minutes incubation at room temperature
Method: The compounds of formula I according to the invention modulate the activity of the G-protein-coupled receptor GPR119. The effect of the compounds on the activation of GPR119 and on the stimulation of intracellular cAMP concentration is determined using the AlphaScreen cAMP Assay Kit (Cat.No.#6760625R) made by PerkinElmer.
MIN6 cells [Miyazaki J et al. Endocrinology. 1990 July; 127(1):126-32] are stably transfected with an expression vector for human GPR119 cDNA (Acc. No. NP_848566). Min-6/hGPR119 cells are cultured in DMEM, 10% FBS, 50 μM β-mercaptoethanol, 0.3 mg/mL Geniticin, 2 mM GlutaMAX at 37° C. 5% CO2. For the assay, the cells are seeded in Optiplates (white, 384-well, 160W— barcoded, TC, sterile with lid, Cat.No.#6007688 (Perkin Elmer); 10000 cells/well; 50 μl). The plates covered with lids are then incubated for 24 hours at 37° C./5% CO2. After the medium is aspirated from the wells completely, 10 μl of the test compound are added, the compounds are diluted using stimulating buffer (140 mM NaCl, 3.6 mM KCl, 0.5 mM NaH2PO4, 0.5 mM MgSO4, 1.5 mM CaCl2, 10 mM Hepes, 5 mM NaHCO3; pH 7.4. 0.5 mM IBMX and 0.1% BSA, the final DMSO concentration is 1%). After 45 minutes incubation at room temperature (approx. 20° C.), the cAMP concentrations are determined using the AlphaScreen cAMP Assay Kit (Cat.No.#6760625R from PerkinElmer).

EC50	SMILES
9 nM	CC(C)(C)OC(=O)N1CCC(C2Cc3cc(-c4ccc(S(C)(=O)=O)cc4)ncc3O2)CC1 (stereo not shown) [Example 15, 4-[5-(4-Methanesulfonyl-phenyl)-2,3-dihydro-furo[2,3-c]pyridin-2-yl]-piperidine-1-carboxylic acid tert-butyl ester]
186 nM	CC(C)OC(=O)N1CCC(C2Cc3cc(-c4cncnc4)ccc3O2)CC1 (stereo not shown) [Example 16, 4-(5-Pyrimidin-5-yl-2,3-dihydro-benzofuran-2-yl)-piperidine-1-carboxylic acid isopropyl ester]
46 nM	CC1(OC(=O)N2CCC(C3Cc4cc(-c5ccc(S(C)(=O)=O)cc5)ccc4O3)CC2)CC1 (stereo not shown) [Example 17, 4-[5-(4-Methanesulfonyl-phenyl)-2,3-dihydro-benzofuran-2-yl]-piperidine-1-carboxylic acid 1-methyl-cyclopropyl ester]
147 nM	Cc1nc(S(C)(=O)=O)ccc1-c1ccc2c(c1)CC(C1CCN(C(=O)OC(C)C)CC1)O2 (stereo not shown) [Example 18, 4-[5-(6-Methanesulfonyl-2-methyl-pyridin-3-yl)-2,3-dihydro-benzofuran-2-yl]-piperidine-1-carboxylic acid isopropyl ester]
1000 nM	Cc1cc(S(C)(=O)=O)ncc1-c1ccc2c(c1)CC(C1CCN(C(=O)OC(C)C)CC1)O2 (stereo not shown) [Example 19, 4-[5-(6-Methanesulfonyl-4-methyl-pyridin-3-yl)-2,3-dihydro-benzofuran-2-yl]-piperidine-1-carboxylic acid isopropyl ester]
17 nM	CC1(OC(=O)N2CCC(C3Cc4cc(-c5ccc(S(C)(=O)=O)cc5)ncc4O3)CC2)CC1 (stereo not shown) [Example 20, 4-[5-(4-Methanesulfonyl-phenyl)-2,3-dihydro-furo[2,3-c]pyridin-2-yl]-piperidine-1-carboxylic acid 1-methyl-cyclopropyl ester]
77 nM	CC(C)(C)OC(=O)N1CCC(C2Cc3cc(-c4cnco4)ccc3O2)CC1 (stereo not shown) [Example 21, 4-(5-Oxazol-5-yl-2,3-dihydro-benzofuran-2-yl)-piperidine-1-carboxylic acid tert-butyl ester]
23 nM	CC(C)(C)OC(=O)N1CCC(C2Cc3cc(-c4ccc(C#N)c(F)c4)ncc3O2)CC1 (stereo not shown) [Example 28, 4-[5-(4-Cyano-3-fluoro-phenyl)-2,3-dihydro-furo[2,3-c]hyridin-2-yl]-piperidine-1-carboxylic acid tert-butyl ester]
84 nM	CC(C)(C)OC(=O)N1CCC(C2Cc3cc(-c4ccc(S(N)(=O)=O)cc4)ncc3O2)CC1 (stereo not shown) [Example 30, 4-[5-(4-Sulfamoyl-phenyl)-2,3-dihydro-furo[2,3-c]pyridin-2-yl]-piperidine-1-carboxylic acid tert-butyl ester]
39 nM	CC(C)(C)OC(=O)N1CCC(C2Cc3cc(-c4ccc(CC#N)cc4)ncc3O2)CC1 (stereo not shown) [Example 31, 4-[5-(4-Cyanomethyl-phenyl)-2,3-dihydro-furo[2,3-c]pyridin-2-yl]-piperidine-1-carboxylic acid tert-butyl ester]
21 nM	CCNC(=O)c1ccc(-c2cc3c(cn2)OC(C2CCN(C(=O)OC(C)(C)C)CC2)C3)cc1 (stereo not shown) [Example 32, 4-[5-(4-Ethylcarbamoyl-phenyl)-2,3-dihydro-furo[2,3-c]pyridin-2-yl]-piperidine-1-carboxylic acid tert-butyl ester]
190 nM	CC(C)(C)OC(=O)N1CCC(C2Cc3cc(-c4cncnc4)ncc3O2)CC1 (stereo not shown) [Example 33, 4-(5-Pyrimidin-5-yl-2,3-dihydro-furo[2,3-c]pyridin-2-yl)-piperidine-1-carboxylic acid tert-butyl ester]
152 nM	CC(C)(C)OC(=O)N1CCC(C2Cc3cc(-c4cnco4)ncc3O2)CC1 (stereo not shown) [Example 39, 4-(5-Oxazol-5-yl-2,3-dihydro-furo[2,3-c]pyridin-2-yl)-piperidine-1-carboxylic acid tert-butyl ester]
158 nM	CC(C)(C)OC(=O)N1CCC(C2Cc3cc(-c4ccc(C(N)=O)cn4)ccc3O2)CC1 (stereo not shown) [Example 40, 4-[5-(5-Carbamoyl-pyridin-2-yl)-2,3-dihydro-benzofuran-2-yl]-piperidine-1-carboxylic acid tert-butyl ester]
34 nM	CC(C)(C)OC(=O)N1CCC(C2Cc3cc(-c4ccncc4)ncc3O2)CC1 (stereo not shown) [Example 41, 4-(5-Pyridin-4-yl-2,3-dihydro-furo[2,3-c]pyridin-2-yl)-piperidine-1-carboxylic acid tert-butyl ester]
64 nM	CNC(=O)c1ccc(-c2ccc3c(c2)CC(C2CCN(C(=O)OC(C)(C)C)CC2)O3)nc1 (stereo not shown) [Example 42, 4-[5-(5-Methylcarbamoyl-pyridin-2-yl)-2,3-dihydro-benzofuran-2-yl]-piperidine-1-carboxylic acid tert-butyl ester]
269 nM	CC(C)(C)OC(=O)N1CCC(C2Cc3cc(-c4ccncc4C#N)ccc3O2)CC1 (stereo not shown) [Example 43, 4-[5-(3-Cyano-pyridin-4-yl)-2,3-dihydro-benzofuran-2-yl]-piperidine-1-carboxylic acid tert-butyl ester]

Further lines, the compound ahead of its results:

SMILES	EC50
CC(C)(C)OC(=O)N1CCC(C2Cc3nc(-c4ccc(S(C)(=O)=O)cc4)ncc3O2)CC1 (stereo not shown) [Example 22, 4-[2-(4-Methanesulfonyl-phenyl)-6,7-dihydro-furo[3,2-d]pyrimidin-6-yl]-piperidine-1-carboxylic acid tert-butyl ester]	45 nM
CC(C)(C)OC(=O)N1CCC(C2Cc3cc(-c4ccc(S(C)(=O)=O)cc4F)ncc3O2)CC1 (stereo not shown) [Example 23, 4-[5-(2-Fluoro-4-methanesulfonyl-phenyl)-2,3-dihydro-furo[2,3-c]pyridin-2-yl]-piperidine-1-carboxylic acid tert-butyl ester]	18 nM
CS(=O)(=O)c1ccc(-c2cc3c(cn2)OC(C2CCN(C(=O)OC4CCC4)CC2)C3)cc1 (stereo not shown) [Example 24, 4-[5-(4-Methanesulfonyl-phenyl)-2,3-dihydro-furo[2,3-c]pyridin-2-yl]-piperidine-1-carboxylic acid cyclobutyl ester]	17 nM
CC(C)(C)OC(=O)N1CCC(C2Cc3cc(-c4ccc(C(N)=O)cc4F)ncc3O2)CC1 (stereo not shown) [Example 26, 4-[5-(4-Carbamoyl-2-fluoro-phenyl)-2,3-dihydro-furo[2,3-c]pyridin-2-yl]-piperidine-1-carboxylic acid tert-butyl ester]	88 nM
CNC(=O)c1ccc(-c2cc3c(cn2)OC(C2CCN(C(=O)OC(C)(C)C)CC2)C3)c(F)c1 (stereo not shown) [Example 27, 4-[5-(2-Fluoro-4-methylcarbamoyl-phenyl)-2,3-dihydro-furo[2,3-c]pyridin-2-yl]-piperidine-1-carboxylic acid tert-butyl ester]	24 nM
CC(C)(C)OC(=O)N1CCC(C2Cc3cc(-c4ccc(C#N)cc4F)ncc3O2)CC1 (stereo not shown) [Example 29, 4-[5-(4-Cyano-2-fluoro-phenyl)-2,3-dihydro-furo[2,3-c]pyridin-2-yl]-piperidine-1-carboxylic acid tert-butyl ester]	12 nM
CC(C)(C)OC(=O)N1CCC(C2Cc3cc(-c4ccc(S(C)(=O)=O)c(F)c4)ncc3O2)CC1 (stereo not shown) [Example 34, 4-[5-(3-Fluoro-4-methanesulfonyl-phenyl)-2,3-dihydro-furo[2,3-c]pyridin-2-yl]-piperidine-1-carboxylic acid tert-butyl ester]	9 nM
CC(C)(C)OC(=O)N1CCC(C2Cc3cc(-c4ccc(CS(C)(=O)=O)cc4F)ncc3O2)CC1 (stereo not shown) [Example 35, 4-[5-(2-Fluoro-4-methanesulfonylmethyl-phenyl)-2,3-dihydro-furo[2,3-c]pyridin-2-yl]-piperidine-1-carboxylic acid tert-butyl ester]	17 nM
CNS(=O)(=O)c1ccc(-c2cc3c(cn2)OC(C2CCN(C(=O)OC(C)(C)C)CC2)C3)cc1 (stereo not shown) [Example 36, 4-[5-(4-Methylsulfamoyl-phenyl)-2,3-dihydro-furo[2,3-c]pyridin-2-yl]-piperidine-1-carboxylic acid tert-butyl ester]	33 nM
CC(C)(C)OC(=O)N1CCC(C2Cc3cc(-c4ccc(NS(C)(=O)=O)cc4)ncc3O2)CC1 (stereo not shown) [Example 37, 4-[5-(4-Methanesulfonylamino-phenyl)-2,3-dihydro-furo[2,3-c]pyridin-2-yl]-piperidine-1-carboxylic acid tert-butyl ester]	31 nM
Cc1noc(C)c1-c1cc2c(cn1)OC(C1CCN(C(=O)OC(C)(C)C)CC1)C2 (stereo not shown) [Example 38, 4-[5-(3,5-Dimethyl-isoxazol-4-yl)-2,3-dihydro-furo[2,3-c]pyridin-2-yl]-piperidine-1-carboxylic acid tert-butyl ester]	573 nM
